The numbers were not newly measured in patent US20180333352A1, “TOPICAL FORMULATIONS AND USES THEREOF” (SUN PHARMA GLOBAL FZE, priority 2015, published 2018), which cites them from elsewhere.

The test system of series [1] is IFNγ, TNFα, IL-2. To be noted: in vitro.
Series [2] deals with T-cell adhesion to ICAM-1 expressing cells. To be noted: in vitro.

With `CCNC(=O)CCC/C=C\C[C@@H]1[C@@H](/C=C/[C@@H](O)CCc2ccccc2)[C@H](O)C[C@@H]1O` [Bimatoprost, (Z)-7-[(1R,2R,3R,5 S)-3,5-Dihydroxy-2 [(1E,3S)-3-hydroxy-5-phenyl-1-pentenyl]cyclopentyl]-5-N-ethylheptenamide], the “Solubility in ethyl alcohol and methyl alcohol” value (ethyl alcohol, methyl alcohol) is listed as “very soluble”. Besides, the Solubility in water entry (water) is recorded as “only slightly soluble”.

In the case of `CS(=O)(=O)c1cccc(C[C@H](NC(=O)c2c(Cl)cc3c(c2Cl)CCN(C(=O)c2ccc4ccoc4c2)C3)C(=O)O)c1` [lifitegrast], the “Secretion of key inflammatory cytokines (IFNγ, TNFα, IL-2)” value in series [1] is “inhibits”. For the same compound, the “T-cell adhesion to ICAM-1 expressing cells” value in series [2] was “inhibits”.
